Test results: PubChem BioAssay AID330 (DTP/NCI, 2004)
Several values for one entry are separate records, joined by “and”; a condition that tells them apart may be missing. Equal values may be shown once. Inconclusive results and toxic doses are left out. How the source made its calls: active means survival T/C of 150% or more; inactive means T/C below 125% in these data.

Tested on: P388 leukemia ip, CD2F1 mice, survival T/C
Assay: NCI In Vivo Anticancer Drug Screen. Data for tumor model P388 Leukemia (intraperitoneal) in CD2F1 (CDF1) mice
Conditions: endpoint: median survival time, higher = longer survival
Outline: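 Mice carrying the transplanted tumor received test compound or vehicle. Survival was recorded in each group, and the value is the treated-group measurement divided by that of the vehicle-treated control group.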

[1] = dose: 7.5 mg/kg/injection, schedule: Q01DX005 (ip), vehicle: saline with Tween-80
[2] = dose: 15.0 mg/kg/injection, schedule: Q01DX005 (ip), vehicle: saline with Tween-80
[3] = dose: 50.0 mg/kg/injection, schedule: Q01DX009 (ip), vehicle: Klucel (hydroxypropylcellulose) (HPC)
[4] = dose: 100.0 mg/kg/injection, schedule: Q01DX009 (ip), vehicle: Klucel (hydroxypropylcellulose) (HPC)
[5] = dose: 200.0 mg/kg/injection, schedule: Q01DX009 (ip), vehicle: Klucel (hydroxypropylcellulose) (HPC)
[6] = dose: 50.0 mg/kg/injection, schedule: Q01DX005 (ip), vehicle: saline with Tween-80
[7] = dose: 100.0 mg/kg/injection, schedule: Q01DX005 (ip), vehicle: saline with Tween-80
[8] = dose: 200.0 mg/kg/injection, schedule: Q01DX005 (ip), vehicle: saline with Tween-80
[9] = dose: 12.5 mg/kg/injection, schedule: Q01DX005 (ip), vehicle: saline with Tween-80
[10] = dose: 25.0 mg/kg/injection, schedule: Q01DX005 (ip), vehicle: saline with Tween-80

Measured: T/C

CCN(CC)CCCC(C)Nc1cc(/C=C/c2ccc(Cl)cc2)nc2ccc(N(C)C)cc12 (stereo not given)
inactive: [1] 100 % of control | [2] 104 % of control

C=C(NC(=O)c1csc(-c2nc3c(cc2O)-c2nc(cs2)C(=O)NC(C(C)O)C(=O)N/C(=C\C)c2nc(cs2)C(=O)NC2CC(O)C(=O)OCc4cccc5[nH]c(c(C)c45)C(=O)SCC(NC(=O)c4csc2n4)c2nc-3cs2)n1)C(N)=O (stereo not given)
inactive: dose: 15.0 mg/kg/injection, schedule: Q01DX009 (ip), vehicle: Klucel (hydroxypropylcellulose) (HPC) 100 % of control | dose: 30.0 mg/kg/injection, schedule: Q01DX009 (ip), vehicle: Klucel (hydroxypropylcellulose) (HPC) 99 % of control | dose: 60.0 mg/kg/injection, schedule: Q01DX009 (ip), vehicle: Klucel (hydroxypropylcellulose) (HPC) 91 % of control | dose: 120.0 mg/kg/injection, schedule: Q01DX009 (ip), vehicle: Klucel (hydroxypropylcellulose) (HPC) 88 % of control

COc1cc2nnn(-c3ccncc3)c2cc1OC
inactive: dose: 25.0 mg/kg/injection, schedule: Q01DX009 (ip), vehicle: other 100 % of control | dose: 50.0 mg/kg/injection, schedule: Q01DX009 (ip), vehicle: other 93 % of control | dose: 100.0 mg/kg/injection, schedule: Q01DX009 (ip), vehicle: other 99 % of control | dose: 200.0 mg/kg/injection, schedule: Q01DX009 (ip), vehicle: other 96 % of control | dose: 400.0 mg/kg/injection, schedule: Q01DX009 (ip), vehicle: other 96 % of control

CC(=O)NC(C)C(C)(C)O (stereo not given)
inactive: dose: 50.0 mg/kg/injection, schedule: Q01DX009 (ip), vehicle: saline 96 % of control | dose: 100.0 mg/kg/injection, schedule: Q01DX009 (ip), vehicle: saline 118 % of control | dose: 200.0 mg/kg/injection, schedule: Q01DX009 (ip), vehicle: saline 105 % of control | dose: 400.0 mg/kg/injection, schedule: Q01DX009 (ip), vehicle: saline 105 % of control

CN(C)C(=O)n1cnc([N+](=O)[O-])c1
inactive: dose: 100.0 mg/kg/injection, schedule: Q01DX001 (ip), vehicle: saline with Tween-80 97 % of control | dose: 200.0 mg/kg/injection, schedule: Q01DX001 (ip), vehicle: saline with Tween-80 112 % of control

c1ccc2c(c1)ncc1cccn12
inactive: [3] 106 % of control | [4] 107 % of control | [5] 105 % of control | dose: 400.0 mg/kg/injection, schedule: Q01DX009 (ip), vehicle: Klucel (hydroxypropylcellulose) (HPC) 106 % of control

CC1=C2C3OC(=O)C(C)C3CCC2(C)CCC1=O (stereo not given)
inactive: dose: 12.5 mg/kg/injection, schedule: Q04DX002 (ip), vehicle: saline with Tween-80 107 % of control | dose: 25.0 mg/kg/injection, schedule: Q04DX002 (ip), vehicle: saline with Tween-80 91 % of control | dose: 50.0 mg/kg/injection, schedule: Q04DX002 (ip), vehicle: saline with Tween-80 91 % of control

COc1ccc(CCN(Cc2ccc([N+](=O)[O-])cc2)C(=O)c2ccccc2)c(C=O)c1OC
inactive: dose: 100.0 mg/kg/injection, schedule: Q01DX001 (ip), vehicle: saline + alcohol 95 % of control | dose: 200.0 mg/kg/injection, schedule: Q01DX001 (ip), vehicle: saline + alcohol 97 % of control | dose: 400.0 mg/kg/injection, schedule: Q01DX001 (ip), vehicle: saline + alcohol 89 % of control

COC1CCC(NC(C)=O)C(C2CCCCC2)C1 (stereo not given)
inactive: [6] 99 % of control | [7] 94 % of control | [8] 91 % of control

BrCCCCOCBr
inactive: dose: 60.0 mg/kg/injection, schedule: Q01DX005 (ip), vehicle: saline 95 % of control | dose: 120.0 mg/kg/injection, schedule: Q01DX005 (ip), vehicle: saline 95 % of control | dose: 240.0 mg/kg/injection, schedule: Q01DX005 (ip), vehicle: saline 86 % of control

Fc1ccc(Nc2nnc(-c3ccc(Cl)cc3Cl)o2)cc1
inactive: [9] 97 % of control | [10] 99 % of control | [6] 93 % of control and 97 % of control | [8] 96 % of control

COc1cccc2c1C(=O)c1c(OC)c(C=O)cc(OC)c1C2=O
inactive: dose: 50.0 mg/kg/injection, schedule: Q01DX009 (ip), vehicle: water 99 % of control | dose: 100.0 mg/kg/injection, schedule: Q01DX009 (ip), vehicle: water 100 % of control | dose: 200.0 mg/kg/injection, schedule: Q01DX009 (ip), vehicle: water 98 % of control

O=CC(O)C(O)C1[O][Sb][O]C1CO (stereo not given)
inactive: dose: 50.0 mg/kg/injection, schedule: Q01DX005 (ip), vehicle: saline 99 % of control | dose: 100.0 mg/kg/injection, schedule: Q01DX005 (ip), vehicle: saline 100 % of control | dose: 200.0 mg/kg/injection, schedule: Q01DX005 (ip), vehicle: saline 103 % of control

CC(=O)O[C@H]1CC[C@]2(C)C34OC3C[C@]3(C)[C@@H](C(C)=O)CC[C@H]3[C@]43C=C[C@@]2(C1)C1C(=O)OC(=O)C13 (stereo not given in full)
inactive: dose: 50.0 mg/kg/injection, schedule: Q01DX005 (ip), vehicle: Klucel (hydroxypropylcellulose) (HPC) 112 % of control | dose: 100.0 mg/kg/injection, schedule: Q01DX005 (ip), vehicle: Klucel (hydroxypropylcellulose) (HPC) 106 % of control

O=c1nc2sccn2c2ncccc12
inactive: dose: 3.75 mg/kg/injection, schedule: Q01DX005 (ip), vehicle: saline with Tween-80 96 % of control | [1] 94 % of control | [2] 88 % of control

C=CCCc1cc(OC)ccc1C(=O)C(C)C
inactive: dose: 25.0 mg/kg/injection, schedule: Q01DX009 (ip), vehicle: Klucel (hydroxypropylcellulose) (HPC) 100 % of control | [6] 99 % of control | [3] 104 % of control | [7] 107 % of control | [4] 102 % of control | [8] 100 % of control | [5] 104 % of control

CCCCNP(=O)(N1CC1)N1CC1
inactive: dose: 0.2 mg/kg/injection, schedule: Q04DX003 (ip), vehicle: saline 95 % of control | dose: 0.4 mg/kg/injection, schedule: Q04DX003 (ip), vehicle: saline 104 % of control | dose: 0.8 mg/kg/injection, schedule: Q04DX003 (ip), vehicle: saline 118 % of control | dose: 12.5 mg/kg/injection, schedule: Q01DX009 (ip), vehicle: saline 118 % of control | dose: 25.0 mg/kg/injection, schedule: Q04DX003 (ip), vehicle: saline 86 % of control
active: dose: 6.0 mg/kg/injection, schedule: Q04DX003 (ip), vehicle: saline 195 % of control | dose: 6.25 mg/kg/injection, schedule: Q01DX009 (ip), vehicle: saline 172 % of control | dose: 6.25 mg/kg/injection, schedule: Q04DX003 (ip), vehicle: saline 154 % of control | dose: 12.5 mg/kg/injection, schedule: Q04DX003 (ip), vehicle: saline 172 % of control

NC(Cc1ccc(O)cc1)c1nn[nH]n1 (stereo not given)
inactive: dose: 25.0 mg/kg/injection, schedule: Q01DX009 (ip), vehicle: saline with Tween-80 114 % of control | dose: 50.0 mg/kg/injection, schedule: Q01DX009 (ip), vehicle: saline with Tween-80 100 % of control | dose: 100.0 mg/kg/injection, schedule: Q01DX009 (ip), vehicle: saline with Tween-80 99 % of control

C/C=C1/CN2CCC34c5ccccc5N(C)C23C(OC(C)=O)CC1C4(CO)C(=O)OC (stereo not given)
inactive: dose: 2.25 mg/kg/injection, schedule: Q01DX005 (ip), vehicle: saline + Tween-80 + alcohol 120 % of control | dose: 4.5 mg/kg/injection, schedule: Q01DX005 (ip), vehicle: saline + Tween-80 + alcohol 103 % of control | dose: 9.0 mg/kg/injection, schedule: Q01DX005 (ip), vehicle: saline + Tween-80 + alcohol 106 % of control | dose: 18.0 mg/kg/injection, schedule: Q01DX005 (ip), vehicle: saline + Tween-80 + alcohol 104 % of control

C=C1C(=O)OC2CC3(C)OC3CC/C(C)=C/C(OC(C)=O)C12 (stereo not given)
inactive: [9] 111 % of control | [10] 111 % of control | [6] 111 % of control and 112 % of control

Oc1ccc(/C=N/NC(=S)Nc2ccccc2)nc1
inactive: dose: 265.0 mg/kg/injection, schedule: Q04DX003 (ip), vehicle: Klucel (hydroxypropylcellulose) (HPC) 114 % of control | dose: 400.0 mg/kg/injection, schedule: Q04DX003 (ip), vehicle: Klucel (hydroxypropylcellulose) (HPC) 123 % of control | dose: 600.0 mg/kg/injection, schedule: Q04DX003 (ip), vehicle: Klucel (hydroxypropylcellulose) (HPC) 117 % of control

C=Cn1c([N+](=O)[O-])cnc1/C=C/c1ccc(C(=O)NC(C)CC)cc1 (stereo not given)
inactive: dose: 100.0 mg/kg/injection, schedule: Q04DX002 (ip), vehicle: gum acacia 93 % of control | dose: 200.0 mg/kg/injection, schedule: Q04DX002 (ip), vehicle: gum acacia 91 % of control | dose: 400.0 mg/kg/injection, schedule: Q04DX002 (ip), vehicle: gum acacia 96 % of control
